The source of these data is BindingDB's records for doi:10.1021/jm801654y (Harvard Medical School, 2009).

pIC50: −log10 of the molar value.

A word on the pIC50: it is −log10 of the IC50, conventionally taken in molar units. A high value points to a small IC50.

The target of this assay is T1, Histone deacetylase (Plasmodium falciparum (isolate 3D7), UniProt Q7K6A1).
T1 sequence (Q7K6A1 whole entry): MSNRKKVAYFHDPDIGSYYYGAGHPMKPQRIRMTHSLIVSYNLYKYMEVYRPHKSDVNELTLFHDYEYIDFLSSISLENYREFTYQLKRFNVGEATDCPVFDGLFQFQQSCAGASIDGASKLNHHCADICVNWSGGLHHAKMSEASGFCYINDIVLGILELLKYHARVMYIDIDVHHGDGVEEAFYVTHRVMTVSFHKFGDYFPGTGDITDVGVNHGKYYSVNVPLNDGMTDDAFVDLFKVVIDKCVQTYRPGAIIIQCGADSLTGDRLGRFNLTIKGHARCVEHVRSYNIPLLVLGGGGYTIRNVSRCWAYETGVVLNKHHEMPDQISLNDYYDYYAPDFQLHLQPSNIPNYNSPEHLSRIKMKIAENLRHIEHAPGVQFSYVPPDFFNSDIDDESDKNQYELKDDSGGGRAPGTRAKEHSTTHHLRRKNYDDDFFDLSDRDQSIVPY
In words: pfHDAC-1 Enzyme Assay. The settings on record: pH 7.5; 23 °C. How it is done: Recombinant pfHDAC-1 was assayed with substrate in the presence of test compound. […] The reaction was allowed to proceed at room temperature for 15 hrs in sealed plates to minimize evaporation. […] Fluorescence was monitored after 1 hr at excitation and emission wavelengths of 360 and 460 nm, respectively. Kinetic constants were calculated by non-linear regression fitting of the data to the Michaelis-Menten equation. Kinetic and inhibition values reported are the mean of three determinations +/- standard deviation.
In the case of `COc1cc(C=NNC(=O)CCCCCC(=O)NO)c(Br)cc1O` [benzylidenehydrazine derivative, 17], the pIC50 was 7.23.

The compound `O=C(CCCCCCC(=O)NN=Cc1c(O)cc(O)cc1O)NO` [benzylidenehydrazine derivative, 11] had a pIC50 of 7.37.

Compound `O=C(CCCCC(=O)NN=Cc1ccc(O)cc1Br)NO` [benzylidenehydrazine derivative, 21] had a pIC50 of 6.97.

`O=C(CCCCCC(=O)NN=Cc1ccccc1Cl)NO` [benzylidenehydrazine derivative, 18]: the pIC50 was 7.05.

Compound `O=C(CCCCCC(=O)NN=Cc1ccccc1Br)NO` [benzylidenehydrazine derivative, 16] had a negative logarithm of the IC50 (pIC50) of 7.43.

Consider `O=C(CCCCCCC(=O)NN=Cc1cc(O)ccc1O)NO` [benzylidenehydrazine derivative, 9], for which the pIC50 is 6.96.

With `O=C(CCCCCC(=O)NN=Cc1cc2c(cc1Br)OCO2)NO` [benzylidenehydrazine derivative, 10], the negative-log IC50 (pIC50) is 7.70.

For `O=C(CCCCCC(=O)NN=Cc1ccc(-n2ccnc2)cc1)NO` [benzylidenehydrazine derivative, 19], the pIC50 was 7.82.

Compound `O=C(CCCCC(=O)NN=Cc1ccc(B(O)O)cc1)NO` [benzylidenehydrazine derivative, 24] showed a pIC50 of 7.35.

In the case of `O=C1CCc2c(ccc3ccccc23)O1` [1,2-Dihydro-3H-naphtho[2,1-b]pyran-3-one], the negative logarithm of the IC50 (pIC50) was less than 5.00.

As to `O=C(CCCCCC(=O)NN=Cc1cccnc1Br)NO` [benzylidenehydrazine derivative, 20], the pIC50 is 7.44.

`COc1ccc(Br)c(C=NNC(=O)CCCCCC(=O)NO)c1` [benzylidenehydrazine derivative, 12] had a negative logarithm of the IC50 (pIC50) of 7.66.

Regarding `O=C(CCCCCC(=O)NN=Cc1c(O)ccc2ccccc12)NO` [benzylidenehydrazine derivative, 14], the pIC50 is 7.39.

Compound `O=C(CCCCCC(=O)NN=Cc1cc(O)ccc1Br)NO` [benzylidenehydrazine derivative, 15] gave a pIC50 of 7.31.

For the compound `CN(C)c1ccc(C=NNC(=O)CCCCCC(=O)NO)c(O)c1` [benzylidenehydrazine derivative, 13], the negative-log IC50 (pIC50) was 7.43.

`O=C(CCCCC(=O)NN=Cc1cc(O)ccc1Br)NO` [benzylidenehydrazine derivative, 22] had a pIC50 of 7.05.

As for `COc1cc(C=NNC(=O)CCCCC(=O)NO)c(Br)cc1O` [benzylidenehydrazine derivative, 23], the negative-log IC50 (pIC50) is 7.23.

On to `O=C(CCCCCC(=O)NN=Cc1cccc(O)c1)NO` [benzylidenehydrazine derivative, 8], for which the pIC50 is 7.23.
